# Laboratory results reported in patent publication US20100311714A1, “1H-IMIDAZO[4,5-c]QUINOLINONE COMPOUNDS” (priority 2009, published 2010).
# Read-outs that look alike come from different tables or passages of the source.
# Target: T1, PI3K delta (Homo sapiens, UniProt O00329)
# T1 construct: for the full-length p110-d subunit are generated and fused by overlapping PCR; His tag (C); made in house; host or cells: baculovirus BV1060; Tn5 (Trichoplusia ni) or TiniPro insect cells
# Assay: PI3K delta kinase assay (Kinase-Glo luminescence)
# Format: biochemical
# Method in brief: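 Kinase-Glo ATP-depletion luminescence using 10 nM p85(iSH2)-linker-p110δ full-length His-tag construct from insect cells, with 1 μM ATP and 10 μg/mL phosphatidylinositol in 10 mM Tris pH 7.5, 3 mM MgCl2, 50 mM NaCl, 0.05% CHAPS, 1 mM DTT. 60 min room temperature; IC50 from 4-parameter logistic fit over 8 concentrations.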
# T1 sequence (O00329 with tags, fused parts or gaps limits assumed): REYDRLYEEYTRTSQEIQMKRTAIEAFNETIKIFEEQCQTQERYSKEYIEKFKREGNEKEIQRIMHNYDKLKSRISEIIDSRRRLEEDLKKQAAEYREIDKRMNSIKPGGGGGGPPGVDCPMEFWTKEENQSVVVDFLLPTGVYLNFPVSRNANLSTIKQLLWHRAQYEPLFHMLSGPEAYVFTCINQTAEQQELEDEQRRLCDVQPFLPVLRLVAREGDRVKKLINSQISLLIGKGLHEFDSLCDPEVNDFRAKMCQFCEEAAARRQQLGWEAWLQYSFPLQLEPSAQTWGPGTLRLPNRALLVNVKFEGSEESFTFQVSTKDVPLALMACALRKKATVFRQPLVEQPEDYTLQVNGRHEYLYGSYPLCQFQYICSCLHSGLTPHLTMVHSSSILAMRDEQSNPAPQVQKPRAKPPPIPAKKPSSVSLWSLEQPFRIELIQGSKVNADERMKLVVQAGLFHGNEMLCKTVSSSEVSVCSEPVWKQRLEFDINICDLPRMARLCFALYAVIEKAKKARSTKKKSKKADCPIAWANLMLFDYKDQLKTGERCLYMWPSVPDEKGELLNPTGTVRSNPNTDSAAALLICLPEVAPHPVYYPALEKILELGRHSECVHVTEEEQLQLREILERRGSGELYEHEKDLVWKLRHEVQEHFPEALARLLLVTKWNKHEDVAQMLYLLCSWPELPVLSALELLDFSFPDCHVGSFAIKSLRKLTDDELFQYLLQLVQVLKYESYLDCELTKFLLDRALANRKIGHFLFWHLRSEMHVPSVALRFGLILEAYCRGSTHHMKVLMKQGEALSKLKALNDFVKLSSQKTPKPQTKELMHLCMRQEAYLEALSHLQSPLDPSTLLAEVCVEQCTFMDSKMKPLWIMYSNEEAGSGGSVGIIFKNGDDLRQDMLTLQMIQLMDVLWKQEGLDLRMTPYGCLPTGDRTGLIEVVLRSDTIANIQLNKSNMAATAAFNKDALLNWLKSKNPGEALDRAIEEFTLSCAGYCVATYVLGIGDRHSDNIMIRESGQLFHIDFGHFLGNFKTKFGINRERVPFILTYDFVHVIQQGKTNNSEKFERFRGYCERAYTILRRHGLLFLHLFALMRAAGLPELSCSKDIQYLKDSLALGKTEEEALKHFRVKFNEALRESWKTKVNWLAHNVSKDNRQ
Compound,IC50 (read-out: EPK_PI3Kdelta/IC50),IC50 (read-out: PI3Kdelta/IC50)
"CCNc1ncc(-c2ccc3ncc4c(c3c2)n(-c2ccc(C(C)(C)O)nc2C)c(=O)n4C)cn1 [Example 31.7, 8-(2-Ethylamino-pyrimidin-5-yl)-1-[6-(1-hydroxy-1-methyl-ethyl)-2-methyl-pyridin-3-yl]-3-methyl-1,3-dihydro-imidazo[4,5-c]quinolin-2-one]",27 nM,
"CNc1ncc(-c2ccc3ncc4c(c3c2)n(-c2ncccc2C)c(=O)n4C)cn1 [Example 3.4, 3-Methyl-8-(2-methylamino-pyrimidin-5-yl)-1-(3-methyl-pyridin-2-yl)-1,3-dihydro-imidazo[4,5-c]quinolin-2-one]",,236 nM
"Cc1nc(C(F)(F)F)ccc1-n1c(=O)n(C)c2cnc3ccc(-c4cncc(C(C)(C)O)c4)cc3c21 [Example 33.1, 8-[5-(1-Hydroxy-1-methyl-ethyl)-pyridin-3-yl]-3-methyl-1-(2-methyl-6-trifluoromethyl-pyridin-3-yl)-1,3-dihydro-imidazo[4,5-c]quinolin-2-one]",6 nM,
"CCOc1cc(-c2ccc3ncc4c(c3c2)n(-c2cccnc2C)c(=O)n4C)cnc1COC [Example 2.28, 8-(5-Ethoxy-6-methoxymethyl-pyridin-3-yl)-3-methyl-1-(2-methyl-pyridin-3-yl)-1,3-dihydro-imidazo[4,5-c]quinolin-2-one]",54 nM,
